Assay results reported in patent publication US20220362223A1, “ORAL FORMULATION OF X842” (Cinclus Pharma Holding AB, priority 2019, published 2022).
In brackets after ≈: the same amount, converted by molar mass.

Columns and labels:
clinical = experiment: clinical; parameters: species or system human; conditions: in vivo
Protocol: (§1) X842 is a prodrug of linaprazan, which was disclosed in WO 99/55706 and previously studied in Phase I and II studies. […] A clinical Phase I study has shown that administration of a single dose of X842 can maintain the intragastric acidity above pH 4 for 24 hours. X842 is therefore tailored for patients with severe erosive gastroesophageal reflux disease (eGERD).
(§2) It is estimated that this requires a minimal plasma concentration (Cmin) of linaprazan of at least about 240 nmol/L after 22 hours. At such doses, a once daily administration of the formulation would be sufficient. Therefore, in another embodiment, the invention relates to a formulation as disclosed herein, wherein the formulation provides a Cmin of linaprazan in a human of at least about 240 nmol/L after 22 hours following administration of the oral formulation to said human. In a preferred embodiment, the invention relates to a formulation as disclosed herein, wherein a unit dose of the formulation provides a Cmin of linaprazan in a human of at least about 240 nmol/L after 22 hours following administration of the oral formulation to said human.

gastric acid production [1] = experiment: Clinical Phase I study of X842: intragastric pH / gastric acid control; type: in vivo, human
Protocol: as §1, §2

[2] = Solubility of X842 in water; type: physicochemical
Source text: The solubility of X842 is very low. […] This low solubility is problematic for solid oral formulations, and especially for solid immediate release formulations where the active ingredient should dissolve in only a short time period.

gastric acid production [3] = conditions: Phase I and II studies; cited from earlier work

half-life in the body (clinical; human) | metabolism after absorption into the blood stream (clinical) | plasma concentration of X842 (clinical) | solubility in water ([2]; pH 6.8) | solubility ([2]; water, simulated gastric fluid, pH 1.0) [µg/mL] | concentration at 22 h (clinical; human) [nM] | Structure (SMILES) | control of gastric acid production (gastric acid production [1]; compared to linaprazan) | time intragastric acidity is maintained above pH 4 (gastric acid production [1]; single dose, clinical Phase I) [hours] | duration of acid inhibition (gastric acid production [3]) | elimination from the body (gastric acid production [3]) | onset of action / effect at first dose (gastric acid production [3]) | tolerability (gastric acid production [3])
longer half-life | quickly metabolized into linaprazan | only very low and difficult to determine | practically insoluble | ~113 (≈ 235 µM) | – | Cc1cccc(C)c1CNc1cc(C(=O)NCCOC(=O)CCCC(=O)O)cn2c(C)c(C)nc12 [Example X842, 5-{2[({8-[(2,6-dimethylbenzyl)amino]-2,3-dimethylimidazo[1,2-a]pyridine-6-yl}carbonyl)-amino]ethoxy}-5-oxopentanoic acid] | total control of the gastric acid production for a longer time | 24 | – | – | – | –
– | – | – | – | – | ≥ 240 | Cc1cccc(C)c1CNc1cc(C(=O)NCCO)cn2c(C)c(C)nc12 [linaprazan] | – | – | too short duration of acid inhibition | quickly eliminated from the body | fast onset of action and full effect at first dose | well tolerated
